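These data come from cells grown in 96-well plates and exposed to compound for 48 hours at five concentrations. GI50 marks 50% less growth.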 Active and inactive are the calls of the source. Rule as the data show it: active = GI50 up to about 1.1 µM and inactive = higher.
Tests used:
Assay in all cases: NCI anticancer screen, dose series, 48 h
786-0 = system: 786-0
A498 = system: A498
A549 = system: A549
ACHN = system: ACHN
CAKI-1 = system: CAKI-1
CCRF-CEM = system: CCRF-CEM
COLO 205 = system: COLO 205
DLD-1 = system: DLD-1
DMS-114 = system: DMS-114
DMS-273 = system: DMS-273
EKVX = system: EKVX
HCC 2998 = system: HCC 2998
HCT-116 = system: HCT-116
HCT-15 = system: HCT-15
HL-60 = system: HL-60
HOP-18 = system: HOP-18
HOP-62 = system: HOP-62
HOP-92 = system: HOP-92
HT-29 = system: HT-29
IGROV-1 = system: IGROV-1
K562 = system: K562
KM-20L2 = system: KM-20L2
KM12 = system: KM12
LOX IMVI = system: LOX IMVI
LXFL 529 = system: LXFL 529
M14 = system: M14
MOLT-4 = system: MOLT-4
Malme-3M = system: Malme-3M
NCI-H226 = system: NCI-H226
NCI-H23 = system: NCI-H23
NCI-H460 = system: NCI-H460
NCI-H522 = system: NCI-H522
OVCAR-3 = system: OVCAR-3
OVCAR-4 = system: OVCAR-4
OVCAR-5 = system: OVCAR-5
OVCAR-8 = system: OVCAR-8
RPMI-8226 = system: RPMI-8226
RXF 393 = system: RXF 393
RXF 631 = system: RXF 631
SF-268 = system: SF-268
SF-295 = system: SF-295
SF-539 = system: SF-539
SK-MEL-28 = system: SK-MEL-28
SK-MEL-2 = system: SK-MEL-2
SK-MEL-5 = system: SK-MEL-5
SK-OV-3 = system: SK-OV-3
SN12C = system: SN12C
SNB-19 = system: SNB-19
SNB-75 = system: SNB-75
SNB-78 = system: SNB-78
SR = system: SR
SW-620 = system: SW-620
TK-10 = system: TK-10
U-251 = system: U-251
UACC-257 = system: UACC-257
UACC-62 = system: UACC-62
UO-31 = system: UO-31
XF498 = system: XF498
M19-MEL = system: M19-MEL

Measured: GI50

CC(C)(C)c1cc(-c2c3nc(c(-c4cc(C(C)(C)C)cc(C(C)(C)C)c4)c4ccc([nH]4)c(-c4cc(C(C)(C)C)cc(C(C)(C)C)c4)c4nc(c(-c5cc(C(C)(C)C)cc(C(C)(C)C)c5)c5ccc2[nH]5)C=C4)C=C3)cc(C(C)(C)C)c1
inactive: 786-0 > 100 µM | A498 > 100 µM | A549 > 100 µM | ACHN > 100 µM | CAKI-1 > 100 µM | CCRF-CEM > 100 µM | COLO 205 > 100 µM | DLD-1 > 100 µM | DMS-114 > 100 µM | DMS-273 > 100 µM | EKVX > 100 µM | HCC 2998 > 100 µM | HCT-116 > 100 µM | HL-60 > 100 µM | HOP-18 > 100 µM | HOP-62 > 100 µM | HOP-92 > 100 µM | HT-29 > 100 µM | IGROV-1 > 100 µM | K562 > 100 µM | KM-20L2 > 100 µM | KM12 > 100 µM | LOX IMVI > 100 µM | LXFL 529 > 100 µM | M14 > 100 µM | MOLT-4 > 100 µM | Malme-3M > 100 µM | NCI-H226 > 100 µM | NCI-H23 > 100 µM | NCI-H460 > 100 µM | NCI-H522 > 100 µM | OVCAR-3 > 100 µM | OVCAR-4 > 100 µM | OVCAR-5 > 100 µM | OVCAR-8 > 100 µM | RPMI-8226 > 100 µM | RXF 393 > 100 µM | RXF 631 > 100 µM | SF-268 > 100 µM | SF-295 > 100 µM | SF-539 > 100 µM | SK-MEL-28 > 100 µM | SK-MEL-2 > 100 µM | SK-MEL-5 > 100 µM | SK-OV-3 > 100 µM | SN12C > 100 µM | SNB-19 > 100 µM | SNB-75 > 100 µM | SNB-78 > 100 µM | SR > 100 µM | SW-620 > 100 µM | TK-10 > 100 µM | U-251 > 100 µM | UACC-257 > 100 µM | UACC-62 > 100 µM | UO-31 > 100 µM | XF498 > 100 µM
> 100 µM: HCT-15

CC(C)CC(=O)N1CCN(C(=O)CC(C)C)c2ccccc21
inactive: 786-0 > 100 µM | A498 > 100 µM | A549 > 100 µM | ACHN > 100 µM | CCRF-CEM > 100 µM | COLO 205 > 100 µM | DLD-1 > 100 µM | DMS-114 > 100 µM | DMS-273 > 100 µM | EKVX > 100 µM | HCC 2998 > 100 µM | HCT-116 > 100 µM | HL-60 > 100 µM | HOP-18 10.1 µM | HOP-62 > 100 µM | HOP-92 > 100 µM | HT-29 > 100 µM | IGROV-1 > 100 µM | K562 > 100 µM | KM-20L2 > 100 µM | KM12 > 100 µM | LOX IMVI > 100 µM | LXFL 529 > 100 µM | M19-MEL > 100 µM | MOLT-4 > 100 µM | Malme-3M > 100 µM | NCI-H23 > 100 µM | NCI-H460 > 100 µM | NCI-H522 > 100 µM | OVCAR-3 > 100 µM | OVCAR-5 > 100 µM | OVCAR-8 > 100 µM | RPMI-8226 > 100 µM | RXF 393 > 100 µM | RXF 631 > 100 µM | SF-268 > 100 µM | SF-295 > 100 µM | SF-539 > 100 µM | SK-MEL-28 > 100 µM | SK-MEL-2 > 100 µM | SK-OV-3 > 100 µM | SNB-19 > 100 µM | SNB-75 > 100 µM | SNB-78 91.6 µM | SW-620 > 100 µM | TK-10 > 100 µM | U-251 > 100 µM | UACC-257 > 100 µM | UO-31 > 100 µM | XF498 > 100 µM
